Measured values published in patent publication US10987669B2, “Apparatus and method for detection of tumour cells and circulating tumour cells” (MEDCOM ADVANCE, S.A., priority 2016, dated 2021).

Assays:
Assay type in all cases: cell-based
[1] = system: MCF7 breast cancer cell line (compared with MCF12A healthy breast cells); assay: 2-NBD glucose uptake measurements on fixed cells; details: for Fluorescence intensity of 2-NBDG, cancer versus healthy cells: 300 μM 2-NBDG
Experimental: MCF12A, a breast mammary epithelia-derived cell line, and MCF7 breast cancer cell line (American Type Culture Collection, ATCC, Manassas, Va., USA), were routinely cultured in DMEM/F-12 supplemented with 20 ng/mL of human epidermal growth factor, 100 ng/mL of cholera toxin, 0.01 mg/mL of bovine insulin, 500 ng/mL of hydrocortisone 95% and 5% donor horse serum; and in EMEM (Eagle's Minimum Essential Medium) supplemented with 10% fetal bovine serum, 0.01 mg/mL human recombinant insulin, 2 mM of L-glutamine and 1% Penicillin-Streptomycin, respectively. Each cell line was cultured in a humidified atmosphere with 5% CO2 at 37° C.
To study the general uptake and retention of glucose, cells were exposed to 300 μM of 2-(N-(7-Nitrobenz-2-oxa-1,3-diazol-4-yl)Amino)-2-Deoxyglucose (2-NBDG) for different incubation times: 1, 5, 10, 20, 30, and 60 min. To achieve higher 2-NBDG accumulation inside MCF7 cells, cells were exposed to different conditions based on the concentrations of dissolved oxygen. The effects on oxygen availability were evaluated by exposing cells to the hyperoxic or hypoxic environment, created by bubbling 2-NBDG incubation media for 20 min with oxygen or nitrogen, respectively. Afterwards, cells were fixed with 4% paraformaldehyde solution in 1×PBS, for 20 min, and then washed 6 times with 1×PBS and mounted onto glass slides with Fluoromount G (Southern Biotech), for the fluorescence measurements.
(§1) Fixed cells were imaged with fluorescence microscopy and then analysed using Image J. Epi-fluorescence microscope NIKON TE2000E equipped with the 465/495 excitation and 515/555 emission filters was used to collect the fluorescence of 2-NBDG. […]
2-(N-(7-Nitrobenz-2-oxa-1,3-diazol-4-yl)Amino)-2-Deoxyglucose (2-NBDG) is chosen as the model metabolism indicator. […] The concentration of 2-NBDG was determined based on the gain of clear visibility on the fluorescence images. The fluorescence intensity was quantified using Image J. The same thresholds were set for fluorescence images of both healthy and cancer cells to remove the background noises. […]

[2] = system: co-cultured MCF7 (Qdot685 labelled) cells with MCF12A (Qdot625 labelled) cells; assay: 2-NBD glucose uptake measurements in co-cultured cells; details: 300 μM 2-NBDG, 5 min, hyperoxic environment, co-culture
Experimental: To successfully identify different cell types in a cell mixture, previously functionalized Qdot 625 and 685 were used as the intracellular trackers for MCF12A and MCF7 cells, respectively. 50,000 cells/wells of each type were cultured separately onto glass cover slips inside 12-well plates and left growing for 48 h, at 5% CO2 and 37° C. Then, cells were washed with pre-warmed 1×PBS for 1 minute and 100 nM of each Qdot@amino-PEG was added in the cell growth media, and waited for 1 hour. After the incubation, cells were washed 3 times with 1×PBS. MCF7 (Qdot685 labelled) cells were detached from the surface using Trypsin-EDTA solution 0.25% and re-cultured onto MCF12A (Qdot625 labelled) cells. […]
Co-cultured MCF7 (Qdot685 labelled) cells with MCF12A (Qdot625 labelled) cells were exposed to 300 μM of 2-NBDG for 5 min, under the hyperoxic environment, determined by the previous optimizations. Afterwards, cells were fixed with 4% paraformaldehyde solution in 1×PBS for 20 min, and then washed 6 times with 1×PBS and mounted onto glass slides with Fluoromount G (Southern Biotech), for the fluorescence measurements.
as §1

MCF7 and MCF12A cells = assay: On-line detection of cancer and healthy cells in the detection microfluidic chip; details: 150 μM 2-NBDG, 5 min, hyperoxic 1×PBS, cells in flow at 0.025 mL/h
From the text: A detection chip based on the hydrodynamic focusing technique was constructed to continuously detect hypermetabolic cancer cells by measuring single cell fluorescence. It consisted of three inlets, a main single channel and an outlet (FIG. 8a). All inlet channels converged in a single one of 75 μm-width, which was widen to 600 μm (detection region). The conformation of the inlet channels ensures the focus of cells into a line, which can be further detected one by one. Depth of the whole microfluidic chip was 75 μm.
For the on-line detection of cancer and healthy cells, MCF12A and MCF7 cells were separately detached from culture flasks, centrifuged at 1,300 rpm for 5 min and resuspended in 1 mL of 1×PBS under hyperoxic conditions. As mentioned above, hyperoxia was achieved by bubbling oxygen into the PBS solution for 20 min. 2-NBDG was then added to achieve 150 μM as the final concentration and incubated with suspended cells for 5 min, as the optimal condition. Afterwards, incubation was stopped by adding 2-fold volume of pre-cooled 1×PBS and non-uptaken 2-NBDG was removed by centrifuging cells at 1,300 rpm for 5 min and suspending in 1×PBS. […] An epi-fluorescence microscope was used to collect the fluorescence of the 2-NBDG uptaken by single cells (both, MCF12A and MCF7). Data was analyzed with Image J software.

O=[N+]([O-])c1ccc(N[C@H]2C(O)O[C@H](CO)[C@@H](O)[C@@H]2O)c2nonc12 (some centres unmarked) [2-NBDG, 2-(N-(7-Nitrobenz-2-oxa-1,3-diazol-4-yl)Amino)-2-Deoxyglucose]
Fluorescence intensity of 2-NBDG, cancer versus healthy cells ([1]; 5 min incubation, MCF7 vs MCF12A cultured separately): higher fluorescence compared to healthy cells
Fluorescence intensity of 2-NBDG, cancer versus healthy cells ([1]; incubation longer than 5 min (up to 60 min), MCF7 vs MCF12A): fluorescence from healthy cells overtakes the cancer cells
Fluorescence intensity gap between cancer and healthy cells ([1]; 5 min incubation, hyperoxia compared to control and hypoxia environments): further enlarged
Fluorescence intensity of 2-NBDG, cancer cell versus surrounded healthy cells [2]: greater fluorescence intensity
Single cell fluorescence intensity of 2-NBDG, cancer versus healthy cells (MCF7 and MCF12A cells): higher fluorescence intensity compared to the healthy ones
